The test system of series [1] is GPA33-expressing SW1222 xenografts. As to the kind of experiment: Absorbed dose estimates for PRIT+[^177Lu]LuDOTA-Bn including dendron-CA CCA-16-DOTA-Y^3+. In kind it is in vivo, nude mice. The note with it: with dendron-CA; bone marrow as dose-limiting organ. As for the experimental part: Absorbed dose estimates for PRIT+[^177Lu]LuDOTA-Bn including dendron-CA CCA-16-DOTA-Y^3+: In order to calculate absorbed doses for PRIT+[[…]]LuDOTA-Bn including dendron-CA (the clearing agent of the present technology), groups of nude mice bearing GPA33-expressing SW1222 xenografts (n=5/group) were injected i.v. with the BsAb huA33-C825 (250 μg; 1.19 nmol) 28 h prior and i.v. with dendron-clearing agent CCA-16-DOTA-Y^3+ (25 μg; 2.76 nmol) 4 h prior to administration of [^177Lu]LuDOTA-Bn (20 pmol, 3.7 MBq [100 μCi]). These mice were sacrificed at 1, 4, 24, or 48 h p.i. of [^177Lu]LuDOTA-Bn for biodistribution assay. For each tissue, the non-decay-corrected time-activity concentration data were fitted using Excel to a 1-component, 2-component, or more complex exponential function as appropriate, and analytically integrated to yield the cumulated activity concentration per unit administered activity (MBq-h/g per MBq). The ^177Lu equilibrium dose constant for non-penetrating radiations (8.49 g-cGy/MBq-h) was used to estimate the tumor-to-tumor and select organ-to-organ self-absorbed doses, assuming complete local absorption of the ^177Lu beta rays only, and ignoring the gamma ray and non-self dose contributions.

In series [2] the test system is SW1222 xenografts (anti-GPA33 PRIT). As to the kind of experiment: Optimized PRIT+[^177Lu]LuDOTA-Bn including dextran-CA (Cheal et al. 2016): dosimetry and therapy. In kind it is in vivo, mice. The note with it: with dextran-CA; bone marrow as dose-limiting organ. An excerpt: See Cheal et al., Eur J Nucl Med Mol Imaging 43: 925 (2016). […] Cheal et al., Eur J Nucl Med Mol Imaging 43: 925 (2016).
Based on human normal-tissue radiation dose tolerance estimates derived from clinical observations (Marks, et al., Int J Radiat Oncol Biol Phys. 76:S10-9 (2010)) the maximum tolerated doses (MTDs) are 250 cGy for bone marrow, 1,500 cGy for lung, 3,000 cGy for liver, and 2,000 cGy for kidney. […] At this activity, the estimated absorbed dose delivered to tumor would be 18,292 cGy (183 Gy), with 250 cGy to blood (marrow) and 1,473 cGy to kidney.

The test system is the same in series [3]. The conditions noted are these: with dextran-CA, cited from earlier work.
Series [4] has as its system SW1222 tumor (same animal model). The conditions noted are these: 24 h p.i.; 1.85-8.8 MBq, 10-50 pmol; cited from earlier work.

With “^177Lu-aminobenzylDOTA [[^177Lu]LuDOTA-Bn]”, the “maximum tolerated pretargeted activity” value was 21 MBq in series [1] and 278 MBq in series [2]. Also, the CR frequency in series [3] (111.0 MBq delivered in a fractionated dose strategy) was 100%. Besides, the “survival beyond 140 days” value in series [3] (111.0 MBq fractionated) was “two of nine mice”. The treatment-related toxicity result in series [3] (effective treatment) is reported as “no major treatment-related toxicities observed”. Besides, the mean tumor uptake in series [4] is recorded as approximately 8 % ID/g.

These data come from patent publication US11413354B2, “N-acetylgalactosamino dendron-clearing agent for dota-pretargeted radioimmunotherapy” (priority 2018, dated 2022).
